Measured values taken from article PMC11267363, “Supramolecular Nanofibers Ameliorate Bleomycin‐Induced Pulmonary Fibrosis by Restoring Autophagy” (Advanced Science, 2024).
Ends that are not written are not given here.

What was measured:
[1] = target: T1, human TRB3 protein (Homo sapiens, UniProt Q96RU7); test: Microscale thermophoresis (MST) binding to TRB3; details: Monolith NT.115, recombinant human TRB3, read-out: binding constant (KD)
T1 construct: purchased Sino Biological 10731-H09B
T1 sequence (Q96RU7 1-358): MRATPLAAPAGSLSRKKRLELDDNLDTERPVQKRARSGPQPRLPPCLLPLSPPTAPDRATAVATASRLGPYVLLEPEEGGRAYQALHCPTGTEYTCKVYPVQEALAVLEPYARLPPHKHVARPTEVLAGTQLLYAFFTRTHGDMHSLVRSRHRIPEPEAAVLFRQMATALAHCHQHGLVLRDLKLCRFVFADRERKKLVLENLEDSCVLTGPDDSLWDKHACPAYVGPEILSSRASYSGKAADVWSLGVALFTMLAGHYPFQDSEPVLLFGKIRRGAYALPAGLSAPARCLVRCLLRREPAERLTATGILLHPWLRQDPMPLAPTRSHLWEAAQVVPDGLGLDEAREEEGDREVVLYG
Protocol: To determine the effects of the self‐assembly factor “Ac‐GFFY” on the secondary structure of the A2 peptide fragment, Circular dichroism (CD) and Fourier transform infrared (FTIR) measurements were performed. […] We subsequently assessed the binding affinity between Ac‐GFFY‐A2 or A2 peptides to the human TRB3 protein or bovine serum albumin (BSA) using microscale thermophoresis (MST) assay, with BSA serving as the control group. […] Therefore, we labeled the peptide with the fluorescence group 7‐nitro‐1,2,3‐benzoxadiazole (NBD) to determine the cellular uptake via flow cytometer. The NBD‐labeled peptide was incubated with both of normal and activated MRC‐5 cells for 4 h, respectively. […] Collectively, under the action of supramolecular self‐assembly, the peptide assemblies with stable secondary conformation can not only be effectively absorbed by MRC‐5 cells but also have the potential to interfere with TRB3/p62 PPIs.
HR‐MS (Varian QFT‐ESI) was used to characterize the molecular weight of compounds. TEM (JEM100CXII) was performed at the Tecnai G2 F20 system, operating at 100 kV. Circular dichroism (CD) spectrum was obtained by a BioLogic (MOS‐450) system. Dynamic light scattering was measured by a ZETAPALS/BI‐200SM (BROOKHAVEN) system. Confocal laser scanning microscopy (CLSM) was measured by Leica TCS SP‐5. Flow cytometry (BD, FACS) was used to detect the cellular uptake. […]

[2] = target: T2, TRB3/p62 PPIs (Homo sapiens, UniProt Q96RU7); test: Co-immunoprecipitation and CLSM co-localization of TRB3/p62 in activated MRC-5 cells; assay type: cell-based; details: TGF-β1 10 ng/mL, peptide 50 µM, 24 h
T2 construct: endogenous in cells
T2 sequence (Q96RU7 1-358): T1 sequence (Q96RU7 1-358)
Protocol: The MRC‐5 cells were seeded on the CLSM dish at a density of 6 × 10^4 cells. After adherence, the solution containing TGF‐β1 (10 ng mL^−1), saline plus TGF‐β1 (10 ng mL^−1), A2 (50 µM) plus TGF‐β1 (10 ng mL^−1), Ac‐GFFY‐A2 (50 µM) TGF‐β1 (10 ng mL^−1), was added to incubate cells for 24 h, respectively. Then, the medium was removed and the cells were washed with cold PBS three times. The cells were fixed with 4% of Paraformaldehyde for 10 min at room temperature. Then, the solution was sucked away, and washed by cold PBS three times for a min each time. 0.1% Triton X‐100 solution was used to disrupt the cell membrane structure. […]
Total proteins were exacted from cells or tissues with RIPA lysis buffer (Beyotime Biotecnology). The protein concentration was measured using BCA Protein Assay Kit (Thermo Scientific). […] The protein transferred PVDF membranes were incubated with following primary antibodies at 4°C overnight: Then the membranes were incubated with horseradish peroxidase (HRP)-conjugated secondary antibodies at room temperature for 1 h, and protein signals were detected using an enhanced chemiluminescence kit (Pierce). […] The co -precipitates were resolved using SDS–PAGE and detected with immunoblotting. […]
Hydroxyproline content of right lung of each mouse was measured using a conventional hydroxyproline method as previously described.

| Substance | Kd [1] [µM] | disruption of TRB3/p62 PPIs (co-IP, co-localization) [2] |
| --- | --- | --- |
| Ac-GFFYGGWLTRLLQTK-OH [Ac-GFFY-A2] | ~19.1 | successfully inhibited the TRB3/p62 PPIs |
| GGWLTRLLQTK-OH [A2, reference compound] | – | minimal capacity to disrupt the TRB3/p62 PPIs |
